Experimental data as given in US20140045890A1, “NOVEL COMPOUNDS” (SYNGENTA PARTICIPATIONS AG, priority 2011, published 2014).

Columns and labels:
[1] = tested on: Phaeosphaeria nodorum (Septoria nodorum); assay: Phaeosphaeria nodorum (Septoria nodorum) / wheat / leaf disc preventative (glume blotch); type: in vivo; conditions: Parastagonospora nodorum, foliar, wheat leaf segments cv. Kanzler, inoculated 2 days after application, assessed 5-7 days after application, read-out: inhibit fungal infestation (percent disease control compared to untreated)
[2] = tested on: Blumeria qraminis f. sp. tritici (Erysiphe qraminis f. sp. tritici); assay: Blumeria graminis f. sp. tritici / wheat / leaf disc preventative (powdery mildew on wheat); type: in vivo; conditions: foliar, wheat leaf segments cv. Kanzler, inoculated 1 day after application, assessed 6-8 days after application, read-out: inhibit fungal infestation (percent disease control compared to untreated)
Plasmopara viticola = Plasmopara viticola / grape / leaf disc preventative; type: in vivo; conditions: foliar, grape vine leaf disks, inoculated 1 day after application, assessed 6-8 days after application, read-out: inhibit fungal infestation (percent disease control compared to untreated)
Phytophthora infestans = assay: whole plant or invertebrate; type: in vivo; conditions: in Solanum lycopersicum, foliar, read-out: inhibit fungal infestation (percent disease control compared to untreated)
Pythium ultimum = Pythium ultimum / liquid culture (seedling damping off); type: cell-based; conditions: Globisporangium ultimum, liquid culture in PDB, 24° C., 2-3 days after application, read-out: inhibit fungal infestation (inhibition of growth determined photometrically)

| SMILES | inhibition at 200 ppm [1] | melting point | inhibition at 200 ppm [2] | inhibition at 200 ppm (Plasmopara viticola) | inhibition at 200 ppm (Phytophthora infestans) | inhibition at 200 ppm (Pythium ultimum) |
| --- | --- | --- | --- | --- | --- | --- |
| C#Cc1cnc2c(Cl)cc(OC(SC)C(=O)NC(C)(C)c3ccccn3)cc2c1 (stereo not shown) [Compound 10] | ≥ 80% | 153 °C | ≥ 80% | ≥ 80% | ≥ 80% | ≥ 80% |
| CSC(Oc1cc(C)c2ncc(Br)cc2c1)C(=O)NC(C)(C)c1ccccn1 (stereo not shown) [Compound 9] | ≥ 80% | 123 °C | ≥ 80% | ≥ 80% | ≥ 80% | ≥ 80% |
| C#Cc1cnc2ccc(OC(SC)C(=O)NC(C)(C)c3cccc(C)n3)cc2c1 (stereo not shown) [Compound 15] | ≥ 80% | 148 °C | ≥ 80% | ≥ 80% | ≥ 80% | ≥ 80% |
| C#Cc1cnc2c(C)cc(OC(SC)C(=O)NC(C)(C)c3nocc3Br)cc2c1 (stereo not shown) [Compound 45, N-[1-(4-bromoisoxazol-3-yl)-1-methyl-ethyl]-2-[(3-ethynyl-8-methyl-6-quinolyl)oxy]-2-methylsulfanyl-acetamide] | ≥ 80% | 63 to 65 °C | ≥ 80% | ≥ 80% |  | ≥ 80% |
| C#Cc1cnc2ccc(OC(SC)C(=O)NC(C)(C)c3cc(C)on3)cc2c1 (stereo not shown) [Compound 53] | ≥ 80% |  | ≥ 80% | ≥ 80% | ≥ 80% | ≥ 80% |
| C#Cc1cnc2c(F)cc(OC(SC)C(=O)NC(C)(C)c3ccccn3)cc2c1 (stereo not shown) [Compound 11] | ≥ 80% | 125 °C | ≥ 80% | ≥ 80% | ≥ 80% | ≥ 80% |
| C#Cc1cnc2ccc(OC(SC)C(=O)NC(C)(C)c3nccs3)cc2c1 (stereo not shown) [Compound 32] | ≥ 80% | 123 °C | ≥ 80% | ≥ 80% | ≥ 80% | ≥ 80% |
| CSC(Oc1ccc2ncc(Br)cc2c1)C(=O)NC(C)(C)c1ccccn1 (stereo not shown) [Compound 8] | ≥ 80% | 105 °C | ≥ 80% | ≥ 80% | ≥ 80% | ≥ 80% |
| C=Cc1cnc2c(C)cc(OC(OC)C(=O)NC(C)(C)c3nc(C)cs3)cc2c1 (stereo not shown) [Compound 135] | ≥ 80% | 139 °C | ≥ 80% | ≥ 80% | ≥ 80% | ≥ 80% |
| C#Cc1cnc2c(C)cc(OC(SC)C(=O)NC(C)(C)c3ccon3)cc2c1 (stereo not shown) [Compound 39, 2-[(3-ethynyl-8-methyl-6-quinolyl)oxy]-N-(1-isoxazol-3-yl-1-methyl-ethyl)-2-methylsulfanyl-acetamide] | ≥ 80% |  | ≥ 80% | ≥ 80% | ≥ 80% | ≥ 80% |
| C#Cc1cnc2c(C)cc(OC(SC)C(=O)NC(C)(C)c3ccccn3)cc2c1 (stereo not shown) [Compound 7] | ≥ 80% | 113 °C | ≥ 80% | ≥ 80% | ≥ 80% | ≥ 80% |
| C#Cc1cnc2c(C)cc(OC(SC)C(=O)NCc3nc(C)cs3)cc2c1 (stereo not shown) [Compound 24] | ≥ 80% | 148 °C | ≥ 80% | ≥ 80% | ≥ 80% | ≥ 80% |
| C#Cc1cnc2ccc(OC(SC)C(=O)NC(C)(C)c3ccon3)cc2c1 (stereo not shown) [Compound 44] | ≥ 80% |  | ≥ 80% | ≥ 80% | ≥ 80% | ≥ 80% |
| C#Cc1cnc2ccc(OC(SC)C(=O)NC(C)(C)c3cc(Cl)on3)cc2c1 (stereo not shown) [Compound 73] | ≥ 80% |  | ≥ 80% | ≥ 80% | ≥ 80% | ≥ 80% |
| C#Cc1cnc2c(Cl)cc(OC(OC)C(=O)NC(C)(C)c3ccccn3)cc2c1 (stereo not shown) [Compound 12] | ≥ 80% | 108 °C | ≥ 80% | ≥ 80% | ≥ 80% | ≥ 80% |
| C#Cc1cnc2ccc(OC(CC)C(=O)NC(C)(C)c3ccccn3)cc2c1 (stereo not shown) [Compound 13] | ≥ 80% | 96 °C | ≥ 80% | ≥ 80% | ≥ 80% | ≥ 80% |
| C#Cc1cnc2ccc(OC(SC)C(=O)NC(C)(C)c3cc(C)ccn3)cc2c1 (stereo not shown) [Compound 18, 2-[(3-ethynyl-6-quinolyl)oxy]-N-[1-methyl-1-(4-methyl-2-pyridyl)ethyl]-2-methylsulfanyl-acetamide] | ≥ 80% | 63 °C | ≥ 80% | ≥ 80% | ≥ 80% | ≥ 80% |
| C#Cc1cnc2ccc(OC(SC)C(=O)NC(C)(CC)c3nc(C)cs3)cc2c1 (stereo not shown) [Compound 20] | ≥ 80% | 120 °C | ≥ 80% | ≥ 80% | ≥ 80% | ≥ 80% |
